From patent publication US8440837B2, “2-substituted-ethynylthiazole derivatives and uses of same” (H. Lundbeck A/S, priority 2009, dated 2013)
pEC50, pIC50: −log10 of the molar value.

Assays:
[1] = molecular target: human metabotropic glutamate receptor 5 (hmGluR5); test: Calcium mobilization (FLIPR) assay, negative allosteric modulation of the EC80 glutamate response; format: cell-based; details: HEK 293 cells, inhibition of EC80 glutamate response
Description: (§1) The cDNA for human metabotropic glutamate receptor 5 (hmGluR5) was a generous gift from S. Nakanishi (Kyoto University, Kyoto, Japan). The […] was stably expressed in a HEK 293 cell line and grown in Dulbecco's Modified Eagle Medium (DMEM) (Invitrogen, Carlsbad, Calif.) with supplements (10% bovine calf serum, 4 mM glutamine, 100 units/mL penicillin, 100 μg/mL streptomycin and […]) at 37° C., 5% CO2. Twenty-four hours prior to assay, cells were seeded into 384-well black wall microtiter plates coated with poly-D-lysine. Just prior to assay, media was aspirated and cells dye-loaded (25 μL/well) with 3 μM Fluo-4/0.01% pluronic acid in assay buffer (Hank's Balanced Saline Solution (HBSS)): 150 mM NaCl, 5 mM KCl, 1 mM CaCl2, 1 mM MgCl2, plus 20 mM N-2-Hydroxyethylpiperazine-N′-2-ethanesulfonic acid (HEPES), pH 7.4, 0.1% bovine serum albumin (BSA) and 2.5 mM probenicid) for 1 hour in 5% CO2 at 37° C. After excess dye was discarded, cells were washed in assay buffer and layered with a final volume equal to 30 μL/well. Basal fluorescence is monitored in a fluorometric imaging plate reader (FLIPR) (Molecular Devices, Sunnyvale, Calif.) with an excitation wavelength of 488 nm and an emission range of 500 to 560 nm. Laser excitation energy was adjusted so that basal fluorescence readings were approximately 10,000 relative fluorescent units. Cells were stimulated with an EC20 or an EC80 concentration of glutamate in the presence of a compound to be tested, both diluted in assay buffer, and relative fluorescent units were measured at defined intervals (exposure=0.6 sec) over a 3 min period at room temperature. Basal readings derived from negative controls were subtracted from all samples. Maximum change in fluorescence was calculated for each well. Concentration-response curves derived from the maximum change in fluorescence were analyzed by nonlinear regression (Hill equation).
A negative allosteric modulator (NAM) can be identified from these concentration-response curves if a compound produces a concentration dependent inhibition of the EC80 glutamate response.

[2] = molecular target: human metabotropic glutamate receptor 5 (hmGluR5) (UniProt P31424); test: Calcium mobilization (FLIPR) assay, positive allosteric modulation of the EC20 glutamate response; format: cell-based; details: HEK 293 cells; for maximum modulation (Emax): EC20 glutamate response; for pEC50: increase in EC20 glutamate response
Description: as §1
A silent allosteric modulator (SAM) can be identified by using a combination of both the calcium mobilization assay data and the radioligand binding data. As used herein, the term “silent allosteric modulator” refers to a ligand that binds to an allosteric site of the receptor but has no measurable intrinsic efficacy.

Row | Compound | pIC50 [1] | maximum modulation (Emax) [2] | pEC50 [2]
1 | CC(O)(c1ccccc1)c1cnc(C#Cc2ccccc2)s1 (stereo not shown) [Example 240, 1-Phenyl-1-(2-phenylethynyl-thiazol-5-yl)-ethanol] | 6.85 | – | –
2 | O=C(c1cnc(C#Cc2ccccc2)s1)N1CC2CNCC2C1 (stereo not shown) [Example 173, (Hexahydro-pyrrolo[3,4-c]pyrrol-2-yl)-(2-phenylethynyl-thiazol-5-yl)-methasone] | 6.36 | – | –
3 | Cc1cccc(C#Cc2ncc(C(=O)NC3CCCC3)s2)c1 [Example 24, 2-m-Tolylethynyl-thiazole-5-carboxylic acid cyclopentylamide] | 9.15 | – | –
4 | O=C(c1cnc(C#Cc2ccccc2)s1)N1C2CCC1CC2 [Example 145, (7-Aza-bicyclo[2.2.1]hept-7-yl)-(2-phenylethynyl-thiazol-5-yl)-methanone] | 8.30 | – | –
5 | CC(C)(C)OC(=O)N1CC2CN(C(=O)c3cnc(C#Cc4ccccc4)s3)CC2C1 (stereo not shown) [Example 171, 5-(2-Phenylethynyl-thiazole-5-carbonyl)-hexahydro-pyrrolo[3,4-c]pyrrole-2-carboxylic acid tert-butyl ester] | 7.60 | – | –
6 | O=C(c1cnc(C#Cc2ccccn2)s1)N1CCCCC1 [Example 191, Piperidin-1-yl-(2-pyridin-2-ylethynyl-thiazol-5-yl)-methanone] | 7.54 | – | –
7 | O=C(c1cnc(C#Cc2ccccn2)s1)N1CCCC1 [Example 198, (2-Pyridin-2-ylethynyl-thiazol-5-yl)-pyrrolidin-1-yl-methanone] | 7.70 | – | –
8 | COCC1CCCN(C(=O)c2cnc(C#Cc3ccccc3)s2)C1 (stereo not shown) [Example 123, (3-Methoxymethyl-piperidin-1-yl)-(2-phenylethynyl-thiazol-5-yl)-methanone] | 7.48 | – | –
9 | O=C(c1cnc(C#Cc2ccccc2)s1)N1CC(F)(F)C1 [Example 114, (3,3-Difluoro-azetidin-1-yl)-(2-phenylethynyl-thiazol-5-yl)-methanone] | 7.27 | – | –
10 | O=C(c1cnc(C#Cc2ccccc2)s1)N1CCCC1 [Example 4, (2-Phenylethynyl-thiazol-5-yl)-pyrrolidin-1-yl-methanone] | 8.49 | – | –
11 | Cc1nc(C#Cc2ccccc2)sc1C(=O)NC1CCCC1 [Example 16, 4-Methyl-2-phenylethynyl-thiazole-5-carboxylic acid cyclopentylamide] | 7.44 | – | –
12 | O=C(c1ccccc1)c1cnc(C#Cc2ccccc2)s1 [Example 237, Phenyl-(2-phenylethynyl-thiazol-5-yl)-methanone] | 6.44 | – | –
13 | O=C(c1cnc(C#Cc2ccccc2)s1)N1CC[C@H](F)C1 [Example 5, ((S)-3-Fluoro-pyrrolidin-1-yl)-(2-phenylethynyl-thiazol-5-yl)-methanone] | 8.49 | – | –
14 | COC[C@@H]1CCCN1C(=O)c1cnc(C#Cc2ccccc2)s1 [Example 168, ((S)-2-Methoxymethyl-pyrrolidin-1-yl)-(2-phenylethynyl-thiazol-5-yl)-methanone] | 7.57 | – | –
15 | O=C(c1cnc(C#Cc2ccccc2)s1)N1CC[C@@H](F)C1 [Example 6, ((R)-3-Fluoro-pyrrolidin-1-yl)-(2-phenylethynyl-thiazol-5-yl)-methanone] | 7.43 | – | –
16 | Cc1cccc(C#Cc2ncc(C(=O)N3CCCCC3)s2)n1 [Example 193, [2-(6-Methyl-pyridin-2-ylethynyl)-thiazol-5-yl]-piperidin-1-yl-methasone] | 7.54 | – | –
17 | O=C(c1cnc(C#Cc2cccc(F)c2)s1)N1CCCC1 [Example 21, [2-(3-Fluoro-phenylethynyl)-thiazol-5-yl]-pyrrolidin-1-yl-methanone] | 8.15 | – | –
18 | Cc1nc(C#Cc2ccccc2)sc1C(=O)N1CCCCC1 [Example 13, (4-Methyl-2-phenylethynyl-thiazol-5-yl)-piperidin-1-yl-methanone] | 7.28 | – | –
19 | O=C(c1cnc(C#Cc2ccccc2)s1)N1CCC(F)(F)C1 [Example 115, (3,3-Difluoro-pyrrolidin-1-yl)-(2-phenylethynyl-thiazol-5-yl)-methanone] | 7.51 | – | –
20 | O=C(c1cnc(C#Cc2ccccc2)s1)N1CC2(COC2)C1 [Example 167, (2-Oxa-6-aza-spiro[3.3]hept-6-yl)-(2-phenylethynyl-thiazol-5-yl)-methanone] | – | 150% | 5.72
21 | CC1(O)CCCN(C(=O)c2cnc(C#Cc3ccccc3)s2)CC1 (stereo not shown) [Example 151, (4-Hydroxy-4-methyl-azepan-1-yl)-(2-phenylethynyl-thiazol-5-yl)-methanone] | – | 61% | 7.14
22 | COC1CCCN(C(=O)c2cnc(C#Cc3ccccc3)s2)C1 (stereo not shown) [Example 119, (3-Methoxy-piperidin-1-yl)-(2-phenylethynyl-thiazol-5-yl)-methanone] | – | 46% | 6.85
23 | O=C(c1cnc(C#CC2CCCCC2)s1)N1CCCCC1 [Example 200, (2-Cyclohexylethynyl-thiazol-5-yl)-piperidin-1-yl-methanone] | – | 160% | 6.29
24 | O=C1CCN(C(=O)c2cnc(C#Cc3ccccc3)s2)C1 [Example 140, 1-(2-Phenylethynyl-thiazole-5-carbonyl)-pyrrolidin-3-one] | – | 110% | 6.96
25 | CN1CCN(C(=O)c2cnc(C#Cc3ccccc3)s2)CC1 [Example 42, (4-Methyl-piperazin-1-yl)-(2-phenylethynyl-thiazol-5-yl)-methanone] | – | 160% | 6.28
26 | CC(c1cnc(C#Cc2ccccc2)s1)N1CCCCC1 (stereo not shown) [Example 231, 1-[1-(2-Phenylethynyl-thiazol-5-yl)-ethyl]-piperidine] | 6.15 | – | –
27 | O=C(c1cnc(C#Cc2ccccc2)s1)N1CC2CCC1C2 (stereo not shown) [Example 146, (2-Aza-bicyclo[2.2.1]hept-2-yl)-(2-phenylethynyl-thiazol-5-yl)-methanone] | – | 69% | 8.09
28 | O=C(c1cnc(C#Cc2ccccc2)s1)C1CCCCC1 [Example 238, Cyclohexyl-(2-phenylethynyl-thiazol-5-yl)-methanone] | – | 130% | 6.96
29 | FC1(F)CCN(Cc2cnc(C#Cc3ccccc3)s2)CC1 [Example 223, 4,4-Difluoro-1-(2-phenylethynyl-thiazol-5-ylmethyl)-piperidine] | – | 110% | 7.44
30 | Cc1cccc(C#Cc2ncc(C(=O)N3CCC(O)CC3)s2)c1 [Example 25, (4-Hydroxy-piperidin-1-yl)-(2-m-tolylethynyl-thiazol-5-yl)-methanone] | – | 50% | 7.26
